Source: publication PMC6066355, “Probing the binding site of novel selective positive allosteric modulators at the M1 muscarinic acetylcholine receptor” (Biochemical Pharmacology, 2018)
Where a chain is given by its changes, count along the chain named.

How the values were obtained:
W400^7.35A M1 mAChR = molecular target: T1, W400^7.35A M1 mAChR (Homo sapiens, UniProt P11229, W400A); assay: Whole cell [3H]NMS binding inhibition/interaction assay (ACh ± PAM), FlpIn CHO cells; settings: affinity and cooperativity could not be estimated
T1 construct: expressed in transfected cells
T1 sequence (P11229 1-460 W400A): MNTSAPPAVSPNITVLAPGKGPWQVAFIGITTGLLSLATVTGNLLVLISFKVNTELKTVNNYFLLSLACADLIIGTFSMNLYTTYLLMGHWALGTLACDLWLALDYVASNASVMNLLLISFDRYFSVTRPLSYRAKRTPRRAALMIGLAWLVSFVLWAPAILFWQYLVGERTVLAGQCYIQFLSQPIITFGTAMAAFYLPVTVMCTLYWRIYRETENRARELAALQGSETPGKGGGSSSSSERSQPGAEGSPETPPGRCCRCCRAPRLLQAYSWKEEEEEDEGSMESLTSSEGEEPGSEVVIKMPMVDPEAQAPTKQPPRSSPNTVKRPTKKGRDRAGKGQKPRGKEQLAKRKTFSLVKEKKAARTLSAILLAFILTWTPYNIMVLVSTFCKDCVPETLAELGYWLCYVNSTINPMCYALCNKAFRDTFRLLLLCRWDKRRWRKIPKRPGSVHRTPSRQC
Experimental: Saturation binding assays were performed to estimate the expression levels and equilibrium dissociation constant of the radioligand (KD). FlpIn CHO cells stably expressing the WT or mutant c-myc hM1 mAChRs were plated at the density of 25,000 per well of 96-well white clear bottom Isoplates (PerkinElmer Life Sciences, Boston, MA), and grown overnight at 37 °C. […] Atropine at the final concentration of 100 µM was used to determine non-specific binding. The assays were terminated by rapid removal of the radioligand, and two washes with 100 µl/well ice-cold 0.9% NaCl buffer.
All data were analysed using GraphPad Prism 7 (San Diego, CA). […] Binding interaction studies between orthosteric agonists and allosteric modulators were fitted to the following allosteric ternary complex model (Eq. (1)):(1) Y=BmaxD/D+KDKB/α^′B+KB1+I/KI+B/KB+αIB/KIKB where Bmax is the total number of receptors, [D], [B] and [I] denote the concentrations of radioligand, allosteric ligand, and orthosteric ligand, respectively, and KD, KB and KI represent their respective equilibrium dissociation constants. α′ and α are the cooperativity factors between the allosteric ligand and radioligand or orthosteric ligand, respectively.

WT M1 mAChR [1] = molecular target: T2, WT M1 mAChR (Homo sapiens, UniProt P11229); assay: IP-One (IP1) accumulation assay, CHO-hM1 cells; format: cell-based; settings: for αβ (functional cooperativity with ACh, antilog in brackets) / Logαβ (logarithm of functional cooperativity between ACh and modulator): non-alkylated; for Logαβ (logarithm of functional cooperativity between ACh and modulator): pKB constrained to Table 1, β constrained to 1
T2 construct: expressed in transfected cells
T2 sequence (P11229 1-460): T1 sequence (P11229 1-460 W400A) with A400W
Experimental: (§1) The IP-One assay kit (Cisbio) was used for the direct quantitative measurement of myo-Inositol 1 phosphate (IP1). Cells were seeded at 25,000 per well into 96-well transparent cell culture plates and incubated overnight at 37 °C. […] Cells were then lysed with IP1 lysis buffer (50 mM HEPES pH 7.0, 15 mM KF, 1.5% V/V Triton-X-100, 3% V/V FBS, 0.2% W/V BSA), and IP1 levels were measured by incubation of cell lysates with FRET reagents (the cryptate-labeled anti-IP1 antibody and the d2-labeled IP1 analogue) for 1 h at 37 °C. […] Signals were expressed as the FRET ratio: F = (fluorescence665 nm/fluorescence590 nm) × 10^4, and normalized to the response to maximal ACh concentration (100 µM).
(Eq. (2)) was used:(2) Y=Basal+Em-Basal/1+KA+A/τA where Em is the maximal possible system response and Basal is the response in the absence of agonist. [A] denotes the concentration of ligand, and KA represents its equilibrium dissociation constants. τ denotes the intrinsic efficacy of the ligand, which incorporates the total receptor density and the efficiency of stimulus-response coupling.
(§2) Functional interaction studies between orthosteric agonists and allosteric modulators in IP1 assays were analysed using the following operational model of allosterism and agonism (Eq. (3)):(3) E=Basal+Em-BasalAKB+αβB+τBBEC50/EC50KB+B+AKB+αβB+τBBEC50 where Em is the maximal possible system response, and Basal is the response in the absence of agonist. KB is the equilibrium dissociation constant of allosteric ligand, and EC50 is the concentration of orthosteric agonist required to achieve half maximal response. [A] and [B] denote concentrations of orthosteric and allosteric ligands, respectively. α and β denote allosteric effects on orthosteric ligand binding affinity and efficacy, respectively, and τB denotes the efficacy of allosteric ligand. This model assumes that ACh is a full agonist at the receptor in both the absence/presence of modulator and/or there is no efficacy modulation (i.e., β = 1).

WT M1 mAChR [2] = molecular target: T2, WT M1 mAChR; assay: Receptor alkylation assay: IP1 accumulation after PBZ pre-treatment, CHO-hM1 cells; format: cell-based; settings: for Effect on maximal ACh response (potency of ACh increased): 10 µM PBZ pre-treatment, ACh a partial agonist; for αβ (functional cooperativity with ACh, antilog in brackets) / Logαβ (logarithm of functional cooperativity between ACh and modulator): alkylated with PBZ (10 µM pre-treatment); for Logαβ (logarithm of functional cooperativity between ACh and modulator): β constrained to 1
Experimental: as §1
Cells were pre-treated with vehicle or the irreversible orthosteric alkylating agent, phenoxybenzamine (PBZ) for 30 min at 37 °C, 5% CO2 to reduce functional receptor availability, followed by three extensive washes with PBS. IP1 accumulation assays were then performed as described above.
as §2

| Modulatory effect on ACh inhibition of [3H]NMS binding (W400^7.35A M1 mAChR) | LogτB (logarithm of functional efficacy of the modulator) (WT M1 mAChR [1]) | τB (functional efficacy of the modulator, antilog in brackets) (WT M1 mAChR [1]) | αβ (functional cooperativity with ACh, antilog in brackets) (WT M1 mAChR [1]) | Logαβ (logarithm of functional cooperativity between ACh and modulator) (WT M1 mAChR [1]) | αβ (functional cooperativity with ACh, antilog in brackets) (WT M1 mAChR [2]) | Logαβ (logarithm of functional cooperativity between ACh and modulator) (WT M1 mAChR [2]) | Compound | Effect on maximal ACh response (potency of ACh increased) (WT M1 mAChR [2]) |
| --- | --- | --- | --- | --- | --- | --- | --- | --- |
| completely abolished | 1.00 ± 0.05 | 10 | 59 | 1.77 ± 0.14 | 117 | 2.07 ± 0.13 | Cn1cc(-c2ccc(COc3ccccc3-c3cc(=O)n(C4CCCCC4O)cn3)cc2)cn1 (stereo not drawn) [MIPS1780, 3-(2-hydroxycyclohexyl)-6-(2-((4-(1-methyl-1H-pyrazol-4-yl)-benzyl)oxy)phenyl)pyrimidin-4(3H)-one] | no effect on the maximal agonist response |
| completely abolished | 1.01 ± 0.03 | 10 | 83 | 1.92 ± 0.11 | 144 | 2.16 ± 0.11 | Cc1cnc(C(=O)N[C@H]2CCOC[C@@H]2O)cc1Cc1ccc(-c2cscn2)cc1 [PF-06767832, N-((3R,4S)-3-hydroxytetrahydro-2H-pyran-4-yl)-5-methyl-4-(4-(thiazol-4-yl)benzyl)pyridine-2-carboxamide] | no effect on the maximal agonist response |

| Compound | Modulatory effect on ACh inhibition of [3H]NMS binding (W400^7.35A M1 mAChR) | LogτB (logarithm of functional efficacy of the modulator) (WT M1 mAChR [1]) | τB (functional efficacy of the modulator, antilog in brackets) (WT M1 mAChR [1]) | αβ (functional cooperativity with ACh, antilog in brackets) (WT M1 mAChR [1]) | Logαβ (logarithm of functional cooperativity between ACh and modulator) (WT M1 mAChR [1]) | αβ (functional cooperativity with ACh, antilog in brackets) (WT M1 mAChR [2]) | Logαβ (logarithm of functional cooperativity between ACh and modulator) (WT M1 mAChR [2]) | Effect on maximal ACh response (potency of ACh increased) (WT M1 mAChR [2]) |
| --- | --- | --- | --- | --- | --- | --- | --- | --- |
| Cn1cc(-c2ccc(Cn3cc(C(=O)N[C@H]4CCCC[C@@H]4O)c4c(F)cc(F)cc43)cn2)cn1 [VU6004256, 4,6-difluoro-N-(1S,2S)-2-hydroxycyclohexyl-1-((6-(1-methyl-1H-pyrazol-4-yl)pyridine-3-yl)methyl)-1H-indole-3-carboxamide] | completely abolished | 1.24 ± 0.05 | 17 | 60 | 1.78 ± 0.18 | 91 | 1.96 ± 0.22 | no effect on the maximal agonist response |
